Numbers after ± are expanded uncertainties.
How the values were obtained:
[1] = Liquid; for mass density / speed of sound: 298.15 K, 101.3 kPa; for speed of sound: Sing-around technique in a fixed-path interferometer
[2] = refractive index (Na D-line) (dimensionless); settings: 298.15 K; 101.33 kPa; Liquid; Standard Abbe refractometry
[3] = xn = mol fraction of the nth substance listed; settings: 298.15 K, 101.3 kPa, Liquid; for speed of sound: Sing-around technique in a fixed-path interferometer
[4] = refractive index (Na D-line) (dimensionless); xn = mol fraction of the nth substance listed; settings: 298.15 K, 101.3 kPa, Liquid, Standard Abbe refractometry

CCOC(=O)OCC [diethyl carbonate]
mass density [1]: 969 ± 0.25 kg/m3 | speed of sound [1]: 1176.1 ± 1.2 m/s | vapor or sublimation pressure ([1]; 399.6 K): 101.3 ± 0.3 kPa | refractive index [2]: 1.38221 ± 0.00072

CCOC(=O)OCC [diethyl carbonate] + C=COC(C)=O
speed of sound ([3]; x2 = 0): 1176.1 ± 1.2 m/s | mass density ([3]; x2 = 0): 969 ± 0.25 kg/m3 | refractive index ([4]; x2 = 0): 1.38221 ± 0.00072

CCOC(=O)OCC [diethyl carbonate] + CO
speed of sound ([3]; x2 = 0): 1176.1 ± 1.2 m/s | speed of sound ([3]; x2 = 0.063): 1174.8 ± 1.2 m/s | speed of sound ([3]; x2 = 0.098): 1174.1 ± 1.2 m/s | speed of sound ([3]; x2 = 0.159): 1171.5 ± 1.2 m/s | speed of sound ([3]; x2 = 0.192): 1169.9 ± 1.2 m/s | speed of sound ([3]; x2 = 0.251): 1167 ± 1.2 m/s | speed of sound ([3]; x2 = 0.302): 1164.3 ± 1.2 m/s | speed of sound ([3]; x2 = 0.371): 1160.6 ± 1.2 m/s | speed of sound ([3]; x2 = 0.415): 1158.1 ± 1.2 m/s | speed of sound ([3]; x2 = 0.453): 1155.9 ± 1.2 m/s | speed of sound ([3]; x2 = 0.49): 1153.8 ± 1.2 m/s | speed of sound ([3]; x2 = 0.543): 1150.2 ± 1.2 m/s | speed of sound ([3]; x2 = 0.592): 1146.9 ± 1.2 m/s | speed of sound ([3]; x2 = 0.655): 1142.2 ± 1.2 m/s | speed of sound ([3]; x2 = 0.69): 1139.5 ± 1.2 m/s | speed of sound ([3]; x2 = 0.75): 1134.1 ± 1.2 m/s | speed of sound ([3]; x2 = 0.8): 1129.2 ± 1.2 m/s | speed of sound ([3]; x2 = 0.848): 1123.8 ± 1.2 m/s | speed of sound ([3]; x2 = 0.897): 1117.8 ± 1.2 m/s | speed of sound ([3]; x2 = 0.948): 1110.4 ± 1.2 m/s | mass density ([3]; x2 = 0): 969 ± 0.25 kg/m3 | mass density ([3]; x2 = 0.063): 964.93 ± 0.26 kg/m3 | mass density ([3]; x2 = 0.098): 962.48 ± 0.26 kg/m3 | mass density ([3]; x2 = 0.159): 958.15 ± 0.27 kg/m3 | mass density ([3]; x2 = 0.192): 955.62 ± 0.27 kg/m3 | mass density ([3]; x2 = 0.251): 950.7 ± 0.28 kg/m3 | mass density ([3]; x2 = 0.302): 946.14 ± 0.29 kg/m3 | mass density ([3]; x2 = 0.371): 939.23 ± 0.3 kg/m3 | mass density ([3]; x2 = 0.415): 934.4 ± 0.31 kg/m3 | mass density ([3]; x2 = 0.453): 929.92 ± 0.32 kg/m3 | mass density ([3]; x2 = 0.49): 925.16 ± 0.34 kg/m3 | mass density ([3]; x2 = 0.543): 917.68 ± 0.35 kg/m3 | mass density ([3]; x2 = 0.592): 910.04 ± 0.36 kg/m3 | mass density ([3]; x2 = 0.655): 898.92 ± 0.38 kg/m3 | mass density ([3]; x2 = 0.69): 892 ± 0.4 kg/m3 | mass density ([3]; x2 = 0.75): 878.54 ± 0.42 kg/m3 | mass density ([3]; x2 = 0.8): 865.37 ± 0.45 kg/m3 | mass density ([3]; x2 = 0.848): 850.75 ± 0.47 kg/m3 | mass density ([3]; x2 = 0.897): 833.8 ± 0.51 kg/m3 | mass density ([3]; x2 = 0.948): 812.41 ± 0.55 kg/m3 | refractive index ([4]; x2 = 0): 1.38221 ± 0.00072 | refractive index ([4]; x2 = 0.063): 1.38098 ± 0.00072 | refractive index ([4]; x2 = 0.098): 1.38026 ± 0.00072 | refractive index ([4]; x2 = 0.159): 1.37901 ± 0.00072 | refractive index ([4]; x2 = 0.192): 1.37825 ± 0.00072 | refractive index ([4]; x2 = 0.251): 1.3769 ± 0.00072 | refractive index ([4]; x2 = 0.302): 1.37563 ± 0.00072 | refractive index ([4]; x2 = 0.371): 1.37345 ± 0.00072 | refractive index ([4]; x2 = 0.415): 1.37205 ± 0.00072 | refractive index ([4]; x2 = 0.453): 1.3705 ± 0.00072 | refractive index ([4]; x2 = 0.49): 1.36915 ± 0.00072 | refractive index ([4]; x2 = 0.543): 1.367 ± 0.00072 | refractive index ([4]; x2 = 0.592): 1.36457 ± 0.00072 | refractive index ([4]; x2 = 0.655): 1.36118 ± 0.00072 | refractive index ([4]; x2 = 0.69): 1.359 ± 0.00072 | refractive index ([4]; x2 = 0.75): 1.35486 ± 0.00072 | refractive index ([4]; x2 = 0.8): 1.3509 ± 0.00072 | refractive index ([4]; x2 = 0.848): 1.34641 ± 0.00072 | refractive index ([4]; x2 = 0.897): 1.34105 ± 0.00072 | refractive index ([4]; x2 = 0.948): 1.3344 ± 0.00072

CO [methanol]
mass density [1]: 786.56 ± 0.6 kg/m3 | speed of sound [1]: 1101.8 ± 1.2 m/s | vapor or sublimation pressure ([1]; 337.9 K): 101.3 ± 0.3 kPa | refractive index [2]: 1.32634 ± 0.00072

CO [methanol] + CCOC(=O)OCC
speed of sound ([3]; x1 = 1): 1101.8 ± 1.2 m/s | mass density ([3]; x1 = 1): 786.56 ± 0.6 kg/m3 | refractive index ([4]; x1 = 1): 1.32634 ± 0.00072

C=COC(C)=O [vinyl acetate]
mass density [1]: 925.59 ± 0.37 kg/m3 | speed of sound [1]: 1115.6 ± 1.2 m/s | vapor or sublimation pressure ([1]; 346.1 K): 101.3 ± 0.4 kPa | refractive index [2]: 1.39253 ± 0.00073

C=COC(C)=O [vinyl acetate] + CCOC(=O)OCC
speed of sound ([3]; x1 = 0.043): 1174.2 ± 1.2 m/s | speed of sound ([3]; x1 = 0.105): 1171.2 ± 1.2 m/s | speed of sound ([3]; x1 = 0.17): 1167.9 ± 1.2 m/s | speed of sound ([3]; x1 = 0.193): 1166.9 ± 1.2 m/s | speed of sound ([3]; x1 = 0.254): 1163.6 ± 1.2 m/s | speed of sound ([3]; x1 = 0.299): 1161.2 ± 1.2 m/s | speed of sound ([3]; x1 = 0.353): 1158.2 ± 1.2 m/s | speed of sound ([3]; x1 = 0.407): 1155.2 ± 1.2 m/s | speed of sound ([3]; x1 = 0.458): 1152.3 ± 1.2 m/s | speed of sound ([3]; x1 = 0.507): 1149.3 ± 1.2 m/s | speed of sound ([3]; x1 = 0.556): 1146.4 ± 1.2 m/s | speed of sound ([3]; x1 = 0.598): 1143.7 ± 1.2 m/s | speed of sound ([3]; x1 = 0.65): 1140.4 ± 1.2 m/s | speed of sound ([3]; x1 = 0.697): 1137.2 ± 1.2 m/s | speed of sound ([3]; x1 = 0.744): 1134.1 ± 1.2 m/s | speed of sound ([3]; x1 = 0.803): 1130.1 ± 1.2 m/s | speed of sound ([3]; x1 = 0.85): 1126.7 ± 1.2 m/s | speed of sound ([3]; x1 = 0.901): 1123.1 ± 1.2 m/s | speed of sound ([3]; x1 = 0.946): 1119.8 ± 1.2 m/s | speed of sound ([3]; x1 = 1): 1115.6 ± 1.2 m/s | mass density ([3]; x1 = 0.043): 967.68 ± 0.25 kg/m3 | mass density ([3]; x1 = 0.105): 965.65 ± 0.26 kg/m3 | mass density ([3]; x1 = 0.17): 963.45 ± 0.26 kg/m3 | mass density ([3]; x1 = 0.193): 962.74 ± 0.27 kg/m3 | mass density ([3]; x1 = 0.254): 960.55 ± 0.27 kg/m3 | mass density ([3]; x1 = 0.299): 958.92 ± 0.28 kg/m3 | mass density ([3]; x1 = 0.353): 956.87 ± 0.28 kg/m3 | mass density ([3]; x1 = 0.407): 954.79 ± 0.29 kg/m3 | mass density ([3]; x1 = 0.458): 952.74 ± 0.3 kg/m3 | mass density ([3]; x1 = 0.507): 950.71 ± 0.3 kg/m3 | mass density ([3]; x1 = 0.556): 948.6 ± 0.31 kg/m3 | mass density ([3]; x1 = 0.598): 946.73 ± 0.31 kg/m3 | mass density ([3]; x1 = 0.65): 944.3 ± 0.32 kg/m3 | mass density ([3]; x1 = 0.697): 942.05 ± 0.32 kg/m3 | mass density ([3]; x1 = 0.744): 939.73 ± 0.33 kg/m3 | mass density ([3]; x1 = 0.803): 936.72 ± 0.34 kg/m3 | mass density ([3]; x1 = 0.85): 934.22 ± 0.34 kg/m3 | mass density ([3]; x1 = 0.901): 931.44 ± 0.35 kg/m3 | mass density ([3]; x1 = 0.946): 928.87 ± 0.36 kg/m3 | mass density ([3]; x1 = 1): 925.59 ± 0.37 kg/m3 | refractive index ([4]; x1 = 0.043): 1.3826 ± 0.00072 | refractive index ([4]; x1 = 0.105): 1.3832 ± 0.00072 | refractive index ([4]; x1 = 0.17): 1.38373 ± 0.00072 | refractive index ([4]; x1 = 0.193): 1.38396 ± 0.00072 | refractive index ([4]; x1 = 0.254): 1.38458 ± 0.00072 | refractive index ([4]; x1 = 0.299): 1.385 ± 0.00072 | refractive index ([4]; x1 = 0.353): 1.3855 ± 0.00072 | refractive index ([4]; x1 = 0.407): 1.38602 ± 0.00072 | refractive index ([4]; x1 = 0.458): 1.38655 ± 0.00072 | refractive index ([4]; x1 = 0.507): 1.38706 ± 0.00072 | refractive index ([4]; x1 = 0.556): 1.38757 ± 0.00072 | refractive index ([4]; x1 = 0.598): 1.38804 ± 0.00072 | refractive index ([4]; x1 = 0.65): 1.38859 ± 0.00072 | refractive index ([4]; x1 = 0.697): 1.38917 ± 0.00072 | refractive index ([4]; x1 = 0.744): 1.38968 ± 0.00072 | refractive index ([4]; x1 = 0.803): 1.39031 ± 0.00072 | refractive index ([4]; x1 = 0.85): 1.39087 ± 0.00072 | refractive index ([4]; x1 = 0.901): 1.39143 ± 0.00073 | refractive index ([4]; x1 = 0.946): 1.39197 ± 0.00073 | refractive index ([4]; x1 = 1): 1.39253 ± 0.00073
